Test results published in US5614533A, “Substituted pipecolinic acid derivatives as HIV protease inhibitors” (Bio-Mega/Boehringer Ingelheim Research, Inc., priority 1994, dated 1997).

What was measured:
HIV protease = molecular target: T1, HIV protease (Human immunodeficiency virus type 1 group M subtype B, UniProt P04585); assay: Recombinant HIV Protease HPLC Assay; type: biochemical; details: 37°, 30 min, pH 5.5
T1 construct: HIV protease was expressed in E. coli; made in house; host or cells: E. coli (plasmid pBRT1 prt+)
Excerpt: The procedure is based on the capacity of the test compound to inhibit enzymatic cleavage by HIV protease of a decapeptide (the substrate) having an amino acid sequence which includes a known HIV protease cleavage site of a HIV polyprotein; see H. G. Krausslich et al., Proc. Natl. Acad. Sci. USA, 86, 807 (1989). Details of this assay together with the results obtained for exemplified compounds of formula 1 are described in the examples hereinafter.
Recombinant HIV Protease HPLC Assay:
Enzyme: HIV protease was expressed in E. coli {construct pBRT1 prt^+, see W. G. Farmerie et al., Science, 236, 305 (1987)}, according to the following protocol:
E. coli cells containing the pBRT1 prt^+ plasmid were used to inoculate a seed culture media composed of Luria-Bertani Broth containing 100 μg/mL of ampicillin. Flasks were incubated at 37° under agitation for 17 h. Production flasks containing sterile M9 broth, supplemented with 100 μg/mL of ampicillin, were inoculated at a level of 1% (v/v) using the seed culture described above. Total volume in each production flask was 500 mL in a 2 L Erlenmeyer flask. Flasks were incubated at 37° under agitation until a cell concentration corresponding to an optical density ([…]) of 0.6 was reached (no dilution). This time span was routinely 3-4 h. Flasks were then supplemented with 5 mM isopropylthiogalactoside (IPTG, Research Organics, Cleveland, Ohio, USA) and incubation was continued until the cell concentration reached an optical density of 0.2 at 16-fold dilution. Flasks were then supplemented with 1 mM phenylmethylsulfonyl fluoride (PMSF) and rapidly chilled to 4°. The bacterial cells were recovered by centrifugation at 4°. The wet pellet was stored at -70°.
All steps below were performed at 4° unless otherwise indicated. Thawed cells were mixed with buffer A {50 mM tris(hydroxymethyl)[…] HCl (Tris-HCl, pH 7.4); 0.6 mM ethylenediaminetetraacetic acid (EDTA); 0.375M NaCl, 0.2% Nonidet P-40® (BDH Chemicals Ltd., Poole, UK); 1 mM PMSF}, at a ratio of one part cells to nine parts buffer A. Diatomaceous earth (Celite 545®, John Manville, Lompoc, Calif. USA) was added at a ratio of two parts to one part of wet cell weight. The resulting slurry was homogenized at high speed (ca. 20,000 rpm) on a Waring® industrial blender for 8×15 sec. pulses. Cell debris/Celite® was collected by centrifugation and the resulting pellet was extracted with 4.5 parts of buffer A to one part wet solids using the homogenization procedure described above. Supernatants from both homogenization steps were combined and soluble protein was precipitated by the addition of solid (NH4)2 SO4 to yield a final concentration of 75% saturation. This mixture was agitated for 60 min and the precipitate was recovered by centrifugation. The resulting pellet was suspended in buffer B {50 mM Tris-HCl, pH 8; 30 mM NaCl; 1 mM DL-dithiothreitol (DTT); 1 mM EDTA; 1 mM PMSF; 10% glycerol}, and dialyzed for 18 h against the same buffer.
An aliquot of the dialyzed extract containing 150 mg of the protein was loaded onto a Sephadex A25® anion exchange column (Pharmacia, Uppsala, Sweden) with bed dimensions of 70 cm length and 2.5 cm diameter. The sample was eluted isocratically with buffer B at a linear flow rate of 10 cm/h. Fractions containing HIV protease activity (see below for assay description) were combined, and soluble protein was precipitated by the addition of saturated aqueous (NH4)2 SO4 to yield a total (NH4)2 SO4 concentration of 85% saturation. Precipitated protein was removed by centrifugation and the resulting pellet was dissolved in buffer C {50 mM 2-(4-morpholino)ethanesulfonic acid (MES), pH 5.5; 150 mM NaCl; 1 mM DTT; 1 mM EDTA; 10% glycerol}. This preparation was dialyzed for 18 h against buffer C, and then frozen at -70°. All crude extracts were purified by chromatography in aliquots containing 150 mg of protein in the same manner as described above. […]

[1] = tested on: HIV (H9/HTLV-IIIB) in C8166 cells; assay: plaque assay: inhibition of syncytia formation in HIV-infected C8166 cells; type: cell-based; details: Human immunodeficiency virus 1, IIIB, Table IV, 72 h, 50% inhibition of syncytia formation
Excerpt: Typical of such procedures are those described by S. Harada and N. Yamamoto, Jpn. J. Cancer Res. (Gann), 76, 432 (1985), and S. Harada et al., Science, 229, 563 (1985). An assay based on the latter procedures is described in the examples hereinafter.
The following protocol, used for screening antiviral effects of the compounds of formula 1, is adapted from a plaque assay utilizing HTLV-I transformed cells, previously reported by Harada et al., supra. HTLV-I transformed cells are used because of the rapidity with which HIV will replicate in the cells.
1. The test compound is dissolved in dimethylsulfoxide to a concentration of 5 mg/mL. The resultant solution can be stored at 4° until use.
2. The resultant solution is diluted in RPMI 1640 (Gibco Laboratories, St. Lawrence, Mass., USA) to four times (4×) the final concentration which is to be tested. Once diluted in RPMI 1640, the solution is used in the cell culture assay within 4 h.
3. The 4× solution (50 μL) is added to triplicate wells of a 96 well flat bottomed microtiter plate. RPMI (50 μL) also is added to control wells.
4. C8166 cells (5×10^4) in 50 μL of HEPES-buffered RPMI 1640 (pH=7.2), 10% heat inactivated fetal calf serum (FCS), […] gentamicin (complete media) are added to all wells.
5. Fifty times TCID50 of H9/HTLV-IIIB stock (stored in liquid nitrogen as cell culture supernatant in 50% FCS) in 100 μL of complete media is added to all wells. Infectious titer of virus stocks are as previously determined by end point dilution on C8166 cells. Titer of stocks are stable for 6-12 months when stored at -193°.
6. Microtiter plates are then placed on level shelves of a 37°, 5% CO2 humidified incubator for 72 h.
7. Plates are then removed and centers of syncytia are counted in each well by low power phase contrast light microscopy. […] Control wells should have between 25 and 75 centers of syncytia per well.
8. Percent inhibition of syncytia formation is calculated by the formula: [formula]
The concentration of the test compound which causes a 50% inhibition of syncytia formation, i.e. the EC50, is determined by using the technique of serial dilution of the working solution at step 3 and by using non-linear regression analysis (SAS® program) to graphically plot the observed percent inhibition of syncytia formation against the various concentrations of the test compound.

Row | SMILES | IC50 (HIV protease; Table IV) [nM] | EC50 [1] [nM] | IC50 (HIV protease; Table VII) [nM]
1 | CC(C)(C)NC(=O)[C@@H]1C[C@H](Oc2ccccc2)CCN1C[C@@H](O)[C@H](Cc1ccccc1)NC(=O)OCc1ccccc1 [Table IV, entry 6, N-tert-butyl-1-{3(S)-(benzyloxycarbonylamino)-2(R)-hydroxy-4-phenylbutyl}-4(R)-phenoxypiperidine-2(S)-carboxamide] | 53 | – | –
2 | CC(C)(C)NC(=O)[C@@H]1C[C@H](C2CCCCC2)CCN1C[C@@H](O)[C@H](Cc1ccccc1)NC(=O)OCc1ccccc1 [Table IV, entry 7, N-tert-butyl-1-{3(S)-(benzyloxycarbonylamino)-2(R)-hydroxy-4-phenylbutyl}-4(R)-cylohexylpiperidine-2(S)-carboxamide] | 2100 | – | –
3 | CC(C)(C)NC(=O)[C@@H]1C[C@H](Sc2ccccc2)CCN1C[C@@H](O)[C@H](Cc1ccccc1)NC(=O)[C@H](CC(N)=O)NC(=O)OCc1ccccc1 [Table IV, entry 9, N-tert-butyl-1-{3(S)-{{N-(benzyloxycarbonyl)asparaginyl}amino}-2(R)-hydroxy-4-phenylbutyl}-4(R)-(phenylthio)piperidine-2(S)-carboxamide] | 4 | 43 | –
4 | CC(C)[C@H](NC(=O)OCc1ccccc1)C(=O)N[C@@H](Cc1ccccc1)[C@H](O)CN1CC[C@@H](c2ccccc2)C[C@H]1C(=O)NC(C)(C)C [Table IV, entry 10, N-tert-butyl-1-{3(S)-{{N-(benzyloxycarbonyl)valyl}amino}-2(R)-hydroxy-4-phenylbutyl}-4(R)-phenylpiperidine-2(S)-carboxamide] | 3.1 | 90 | –
5 | CC(C)[C@H](NC(=O)OCc1ccccc1)C(=O)N[C@@H](Cc1ccccc1)[C@H](O)CN1CC[C@@H](Sc2ccccn2)C[C@H]1C(=O)NC(C)(C)C [Table IV, entry 33, N-tert-butyl-1-{3(S)-{{N-(benzyloxycarbonyl)valyl}amino}-2(R)-hydroxy-4-phenylbutyl}-4(R)-(2-pyridinylthio)piperidine-2(S)-carboxamide] | 3.2 | – | –
6 | CC(C)[C@H](NC(=O)OCc1ccccc1)C(=O)N[C@@H](Cc1ccccc1)[C@H](O)CN1CC[C@@H](Sc2ccncc2)C[C@H]1C(=O)NC(C)(C)C [Table IV, entry 34, N-tert-butyl-1-{3(S)-{{N-(benzyloxycarbonyl)valyl}amino}-2(R)-hydroxy-4-phenylbutyl}-4(R)-(4-pyridinylthio)piperidine-2(S)-carboxamide] | 2.5 | – | –

Further lines, results first:

Row | IC50 (HIV protease; Table IV) [nM] | EC50 [1] [nM] | IC50 (HIV protease; Table VII) [nM] | SMILES
7 | 9.5 | – | – | CC(C)(C)NC(=O)[C@@H]1C[C@H](Sc2ccccc2)CCN1C[C@@H](O)[C@H](Cc1ccc(F)cc1)NC(=O)OCc1ccccc1 [Table IV, entry 1, N-tert-butyl-1-{3(S)-(benzyloxycarbonylamino)-2(R)-hydroxy-4-(4-fluorophenyl)butyl}-4(R)-(phenylthio)piperidine-2(S)-carboxamide]
8 | 400 | – | – | CC(C)(C)NC(=O)[C@@H]1C[C@H](c2ccccc2)CCN1C[C@@H](O)[C@H](Cc1ccccc1)NC(=O)OCc1ccccc1 [Table IV, entry 2, N-tert-butyl-1-{3(S)-(benzyloxycarbonylamino)-2(R)-hydroxy-4-phenylbutyl}-4(R)-phenylpiperidine-2(S)-carboxamide]
9 | 460 | – | – | CC(C)(C)NC(=O)[C@@H]1C[C@H](Cc2ccccc2)CCN1C[C@@H](O)[C@H](Cc1ccccc1)NC(=O)OCc1ccccc1 [Table IV, entry 3, N-tert-butyl-1-{3(S)-(benzyloxycarbonylamino)-2(R)-hydroxy-4-phenylbutyl}-4(R)-benzylpiperidine-2(S)-carboxamide]
10 | 30 | 1400 | – | CC(C)(C)NC(=O)[C@@H]1C[C@H](S(=O)(=O)c2ccccc2)CCN1C[C@@H](O)[C@H](Cc1ccccc1)NC(=O)OCc1ccccc1 [Table IV, entry 4, N-tert-butyl-1-{3(S)-(benzyloxycarbonylamino)-2(R)-hydroxy-4-phenylbutyl}-4(R)-(phenylsulfonyl)piperidine-2(S)-carboxamide]
11 | – | 800 | – | CC(C)(C)NC(=O)[C@@H]1C[C@H](Sc2ccccc2)CCN1C[C@@H](O)[C@H](Cc1ccccc1)NC(=O)OCc1ccccc1 [Table IV, entry 5, N-tert-butyl-1-{3(S)-(benzyloxycarbonylamino)-2(R)-hydroxy-4-phenylbutyl}-4(R)-(phenylthio)piperidine-2(S)-carboxamide]
12 | 3.9 | 13 | – | CC(C)[C@H](NC(=O)OCc1ccccc1)C(=O)N[C@@H](Cc1ccccc1)[C@H](O)CN1CC[C@@H](Sc2ccccc2)C[C@H]1C(=O)NC(C)(C)C [Table IV, entry 8]
13 | 3.7 | 700 | – | CC[C@H](C)[C@H](NC(=O)OCc1ccccc1)C(=O)N[C@@H](Cc1ccccc1)[C@H](O)CN1CC[C@@H](c2ccccc2)C[C@H]1C(=O)NC(C)(C)C [Table IV, entry 11, N-tert-butyl-1-{3(S)-{{N-(benzyloxycarbonyl)isoleucyl}amino}-2(R)-hydroxy-4-phenylbutyl}-4(R)-phenylpiperidine-2(S)-carboxamide]
14 | – | – | 34 | CC(C)(C)NC(=O)[C@@H]1C[C@H](Sc2ccncc2)CCN1C[C@@H](O)[C@H](Cc1ccccc1)NC(=O)COc1ccccc1 [Table VII, entry 3, N-tert-butyl-1-{3(S)-{{phenoxyacetyl}amino}-2(R)-hydroxy-4-phenylbutyl}-4(R)-(4-pyridinylthio)piperidine-2(S)-carboxamide]
15 | – | – | 6.8 | Cc1ccc(F)cc1C(=O)N[C@@H](Cc1ccccc1)[C@H](O)CN1CC[C@@H](Sc2ccncc2)C[C@H]1C(=O)NC(C)(C)C [Table VII, entry 9, N-tert-butyl-1-{3(S)-{{(5-fluoro-2-methylphenyl)carbonyl}amino}-2(R)-hydroxy-4-phenylbutyl}-4(R)-(4-pyridinylthio)piperidine-2(S)-carboxamide]
